One assay concerns the target T1, EPR3a ectodomain (Lotus japonicus, UniProt Z9OTA2OEF3).
T1 construct: ectodomain residues 25-223; native signal peptide replaced by AcGP67 signal peptide; non-cleavable C-terminal 6xHis; Sf9 insect cells; PNGase F trimmed and BLUE-NHS labelled for MST
T1 sequence (Z9OTA2OEF3 25-223): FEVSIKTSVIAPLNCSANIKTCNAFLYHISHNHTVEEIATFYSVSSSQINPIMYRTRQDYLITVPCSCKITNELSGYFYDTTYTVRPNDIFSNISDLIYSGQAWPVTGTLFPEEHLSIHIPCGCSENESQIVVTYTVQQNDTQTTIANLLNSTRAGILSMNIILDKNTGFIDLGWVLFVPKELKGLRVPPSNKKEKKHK
The assay can be described thus: microscale thermophoresis. The format is binding. Conditions: PBS pH 7.4, 500 mM NaCl, 0.01% Tween20, RT, labelled protein. (Microscale thermophoresis detects binding through changes in fluorescence in a small temperature gradient.)

Assay [1] deals with T2, EPR3 intracellular kinase domain (Lotus japonicus, UniProt D3KU53).
T2 construct: gene LYS3; intracellular kinase domain residues 259-620; E. coli Rosetta 2; His10-Arg7-SUMO tag cut by 3C protease; lambda-phosphatase dephosphorylated
T2 sequence (D3KU53 entry or part of it): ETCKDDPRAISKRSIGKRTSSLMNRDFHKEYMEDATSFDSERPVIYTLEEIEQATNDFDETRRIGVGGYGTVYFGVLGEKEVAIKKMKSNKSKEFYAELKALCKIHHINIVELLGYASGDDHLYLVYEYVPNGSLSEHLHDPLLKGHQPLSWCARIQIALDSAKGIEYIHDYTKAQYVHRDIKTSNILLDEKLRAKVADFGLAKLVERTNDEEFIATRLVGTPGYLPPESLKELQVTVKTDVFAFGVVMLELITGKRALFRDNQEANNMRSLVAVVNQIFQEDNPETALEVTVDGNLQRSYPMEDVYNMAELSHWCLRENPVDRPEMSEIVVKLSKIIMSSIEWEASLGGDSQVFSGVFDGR
The assay can be described thus: autophosphorylation, SDS-PAGE with Pro-Q Diamond stain. Type of assay: biochemical. Conditions: 20 μM ATP, 10 mM MgCl2, pH 8.0, 1 h.

The target of assay [2] is T3, EPR3a intracellular kinase domain (Lotus japonicus, UniProt Z9OTA2OEF3).
T3 construct: intracellular kinase domain residues 255-615; E. coli Rosetta 2; His10-Arg7-SUMO tag cut by 3C protease; lambda-phosphatase dephosphorylated
T3 sequence (Z9OTA2OEF3 255-615): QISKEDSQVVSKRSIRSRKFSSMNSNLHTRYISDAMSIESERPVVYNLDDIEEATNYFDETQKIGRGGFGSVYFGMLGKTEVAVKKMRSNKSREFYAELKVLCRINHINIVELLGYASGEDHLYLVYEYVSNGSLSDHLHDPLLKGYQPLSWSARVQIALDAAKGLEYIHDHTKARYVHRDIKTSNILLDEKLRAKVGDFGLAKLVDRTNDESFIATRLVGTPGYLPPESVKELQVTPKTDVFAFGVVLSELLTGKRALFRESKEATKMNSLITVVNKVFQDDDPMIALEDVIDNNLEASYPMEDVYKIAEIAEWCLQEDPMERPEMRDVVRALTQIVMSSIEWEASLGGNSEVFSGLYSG
The assay is described as above. The note with it: 20 μM ATP, 10 mM MgCl2, pH 8.0, 1 h. The format is biochemical.

As usually defined, the Kd is the concentration at which binding is half-saturated. The low end stands for tighter binding, the high end for weaker binding. In the case of S. indica β-1,3/β-1,6 decasaccharide, at EPR3a ectodomain (first (high-affinity) of two binding events), the affinity, expressed as Kd, was 51 ± 23 µM.
At EPR3a ectodomain, M. loti EPS gave a Kd of 44.4 ± 11.2 µM.
Consider `OC[C@H]1O[C@@H](O[C@@H]2[C@@H](O)[C@H](O[C@@H]3[C@@H](O)[C@H](O[C@@H]4[C@@H](O)[C@H](O[C@@H]5[C@@H](O)[C@H](O[C@H]6[C@H](O)[C@@H](CO)OC(O)[C@@H]6O)O[C@H](CO)[C@H]5O)O[C@H](CO)[C@H]4O)O[C@H](CO)[C@H]3O)O[C@H](CO)[C@H]2O)[C@H](O)[C@@H](O)[C@@H]1O` (some centres unmarked) [laminarihexaose], for which the Kd on EPR3a ectodomain was around 670 µM.
With `Nc1ncnc2c1ncn2[C@@H]1O[C@H](COP(=O)(O)OP(=O)(O)OP(=O)(O)O)[C@@H](O)[C@H]1O` [ATP], the “autophosphorylation, SDS-PAGE with Pro-Q Diamond stain” value in assay [1] was “EPR3a and EPR3 are able to autophosphorylate”; in assay [2], “EPR3a and EPR3 are able to autophosphorylate”.
`OC[C@H]1O[C@@H](O[C@@H]2[C@@H](O)[C@H](O[C@@H]3[C@@H](O)[C@H](O[C@@H]4[C@@H](O)[C@H](O[C@H]5[C@H](O)[C@@H](CO)OC(O)[C@@H]5O)O[C@H](CO)[C@H]4O)O[C@H](CO)[C@H]3O)O[C@H](CO)[C@H]2O)[C@H](O)[C@@H](O)[C@@H]1O` (some centres unmarked) [laminaripentaose] yielded a dissociation constant (Kd) at EPR3a ectodomain of around 850 µM.
Still for that read-out and setting: to R. leguminosarum EPS belongs 12.5 ± 4 µM; to S. meliloti EPS, 937 ± 389 µM.

For the origin of these results see article PMC10231839, “A glycan receptor kinase facilitates intracellular accommodation of arbuscular mycorrhiza and symbiotic rhizobia in the legume Lotus japonicus” (PLOS Biology, 2023).
